Regarding `CN1CCC2(CC1)NC(=O)NC2=O`, the melting point (commonly the temperature, or range, at which the solid turns liquid) was 283 to 285 °C.

In turn, `CS(=O)(=O)c1ccc(O)c(N)c1` displayed a melting point of 155 to 157 °C. With `Cc1[nH]c(=O)c(C#N)c(C)c1CCC(=O)O` the figure was 253 to 257 °C; with `C#Cc1cccc(NC(=O)NC(=O)CCl)c1`, 185 to 187 °C; with `Cc1nnc(CN)s1`, 76 to 78 °C. With `COC(=O)C(C)Nc1ccc([N+](=O)[O-])cc1` (configuration not stated) the figure was 99 to 101 °C; with `Cc1ccccc1-c1cc(N)on1`, 99 to 101 °C.

`CC(=O)c1nc2ccc(C)cc2[nH]1` returned a melting point of 156 to 158 °C. Next, `OCc1nnc(-c2ccccc2)n1-c1ccccc1`: 199 to 201 °C; `O=C(O)CN(Cc1ccco1)c1cccc(Cl)c1`: 115 to 117 °C. In the case of `O=Cc1ccc(-c2ccc(C(F)(F)F)cc2)o1`, the melting point lay in the range of 106 to 108 °C.

With `CN(C)S(=O)(=O)c1ccc(C(=O)O)cc1Br`, the melting point is 185 to 187 °C.

For the molecule `O=C(O)c1cnc(-c2ccccc2Cl)s1`, the melting point was 200 to 202 °C. Next, `N#Cc1cc2c(nc1N)CCCC2`: 195 to 197 °C; `Cc1nn2cnnc2[nH]c1=O`: 195 to 197 °C. With `Cc1cc(Oc2ccccc2)ccc1N` the figure was 60 to 62 °C; with `COc1ccc(Cc2cnc(NC(=O)CCl)s2)cc1`, 152 to 154 °C; with `CC(C)(CC(=O)O)CC(=O)N1CCOCC1`, 80 to 82 °C. As to `NNc1ccc(-c2ccccc2)nn1`, the melting point was 144 to 146 °C. With `CC(C)CC1CCC(=O)NC1=O` (configuration not stated) the figure was 129 to 131 °C. With `CC(Cl)C(=O)N1CCCC(C(N)=O)C1` (configuration not stated) the figure was 114 to 116 °C; with `Cc1cc(S)nc(C(C)C)n1`, 160 to 164 °C.

`ClCc1nn(-c2ccccc2)c2c1CCC2` registered a melting point of 83 to 85 °C. Next, `NC(=O)c1ncc(Br)cc1Br`: 187 to 189 °C; `COC(=O)c1ncon1`: 34 to 36 °C; `Cc1occc1-c1nnc(S)n1-c1ccccc1`: 234 to 236 °C. Next, `CCc1cc(=O)[nH]c(-c2ccnc(Cl)c2)n1`: 217 to 219 °C; `O=C(NC(C(=O)O)c1ccccc1)c1ccccc1` (configuration not stated): 198 to 200 °C; `COc1ccc(-c2nc(N)sc2-c2ccc(OC)cc2)cc1`: 207 to 209 °C. Consider `O=C1C(=O)N(Cc2ncon2)c2ccc(Br)cc21`, for which the melting point was 197 to 199 °C. Next, `NC(=O)c1cncc(Cl)n1`: 166 to 168 °C; `CC(C)CN(CC(C)C)C(=O)CC(=O)N(CC(C)C)CC(C)C`: 51 to 53 °C. With `Cc1cccc(C2CC2C(=O)O)c1` (configuration not stated) the figure was 88 to 90 °C; with `CC(C)(C)n1cc(C#N)cc1N`, 105 to 107 °C. With `O=C(Nc1ccccn1)c1ccc(O)cc1` the figure was 176 to 178 °C; with `CC(=O)NCCc1cc(C(=O)CCl)ccc1F`, 97 to 99 °C. `O=c1[nH]c2ccc(NCc3ccc(F)cc3)cc2[nH]1` yielded a melting point of 251 to 253 °C. With `NS(=O)(=O)c1cc2c(cc1Br)CCCC(=O)N2` the figure was 249 to 251 °C; with `CC(Oc1ccc(F)cc1Br)C(=O)O` (configuration not stated), 87 to 89 °C; with `O=C(NCCc1ccc(O)cc1)c1ccc(Cl)cc1`, 168 to 170 °C. With `Cn1c(=O)n(CCC(=O)O)c2ccccc21` the figure was 226 to 228 °C. On to `Nc1nc(-c2ccccc2)cn1/N=C/c1ccccc1`, for which the melting point was 202 to 204 °C. Take `COc1cc(-n2cccc2)c(Cl)cc1C(=O)O`: the melting point was 152 to 154 °C.

The molecule `O=C1CCCCC1c1ccc(C(F)(F)F)cc1` (configuration not stated) returned a melting point of 96 to 98 °C. Next, `O=C1NC(=O)N2CCCCC12` (configuration not stated): 114 to 116 °C. With `OCc1ncc(-c2ccccc2)o1` the figure was 117 to 119 °C; with `CCCCn1nnnc1CCl`, less than 17 °C. With `O=Cc1cccc(OCC(=O)O)c1` the figure was 111 to 113 °C; with `CCOC(=O)c1cc(Br)c(OC)c(S(=O)(=O)Cl)c1`, 62 to 64 °C. In the case of `O=C(O)c1ccc(N/N=C/c2cccc(F)c2)cc1`, the melting point is 229 to 231 °C. With `Oc1ccc(-c2nnco2)cc1` the figure was 210 to 212 °C; with `Nc1cc(F)ccc1NC(=O)c1ccccn1`, 101 to 103 °C. `CC(C)(C)c1cnc(S)o1` gave a melting point of 131 to 133 °C. With `CNC1CCN(c2cc(OC)cc(OC)c2)C1=O` (configuration not stated) the figure was 73 to 75 °C; with `Nc1ccncc1C(=O)C(F)(F)F`, 170 to 172 °C; with `Cc1cc(-c2ccccc2)nc(S)n1`, 208 to 210 °C. With `COc1cc(F)c(N)cc1F` the figure was 80 to 82 °C; with `Nc1cccc(Oc2ccnc3ccccc23)c1`, 114 to 116 °C; with `CC1CN(C(=O)c2ccccc2N)CC(C)O1` (configuration not stated), 119 to 121 °C.

`O=C(CBr)c1ccc(S(=O)(=O)N2CCCCC2)cc1` showed a melting point of 108 to 110 °C.

As for `CNC(C)c1ccc(S(C)=O)cc1` (configuration not stated), the melting point was in the range of 52 to 54 °C. On to `CC(NS(=O)(=O)c1ccc(Cl)cc1)C(=O)O` (configuration not stated), for which the melting point fell in the range of 136 to 138 °C. As to `COC(=O)C(=O)CC(=O)c1c(F)cccc1F`, the melting point is 88 to 90 °C. Next, `Cc1cc(C(=O)O)ccc1N1CCNC1=O`: 279 to 281 °C; `O=C(O)Cc1coc2cc(F)ccc12`: 103 to 105 °C. As for `CS(=O)(=O)c1ccc2c(c1)NC(=O)CO2`, the melting point was 229 to 231 °C.

As for `Cc1cccc2[nH]c(C(=O)O)cc12`, the melting point is 216 to 218 °C. Next, `O=C1c2ccccc2S(=O)(=O)N1CCl`: 145 to 147 °C. Consider `O=C(O)C1CCN(c2ccc(F)cc2)C1=O` (configuration not stated), for which the melting point fell in the range of 145 to 147 °C. Next, `Oc1ccc(-n2cccn2)cc1`: 107 to 109 °C; `COCCOc1ccc(C=O)cc1OC`: 67 to 69 °C; `Cc1ccc(N)c(OCCN(C)C)c1`: 51 to 53 °C. Next, `Cc1ccc(C(N)Cn2ccnc2)c(C)c1` (configuration not stated): 79 to 81 °C.

Molecule `Nc1nc(CCCC(=O)O)cs1` yielded a melting point of 89 to 91 °C.

Molecule `NS(=O)(=O)c1ccc(OCCC(=O)O)cc1` came in with a melting point of 140 to 142 °C. With `CCc1ccccc1NC(=O)CC(C)=O` the figure was 89 to 91 °C. With `Nc1cccc(S(=O)(=O)Nc2ccccc2F)c1` the figure was 195 to 197 °C. Next, `NS(=O)(=O)NCc1cccnc1`: 129 to 131 °C. In the case of `O=C(NC1CCCCCC1)c1ccco1`, the melting point was in the range of 99 to 101 °C. With `O=C(O)c1ccc(S(=O)(=O)N2CCCCCC2)cc1` the figure was 235 to 237 °C. Take `CC(O)c1ccc(-n2cccn2)cc1` (configuration not stated): the melting point fell in the range of 92 to 94 °C. Next, `CC(C)C(=O)Nc1cc(C(=O)O)c(F)cc1F`: 233 to 235 °C; `CCNC(=O)NC(=O)C(C)Cl` (configuration not stated): 126 to 128 °C; `Nc1ccc(Cl)c(S(=O)(=O)Nc2cccc(Cl)c2)c1`: 158 to 160 °C. The molecule `COc1cccc(C(=O)NCC(=O)O)c1` yielded a melting point of 78 to 80 °C. Next, `CC1(C)CC(NC(=O)CCl)CC(C)(C)N1`: 61 to 63 °C; `Cc1nnc(C(Cl)(Cl)Cl)o1`: 47 to 49 °C. As to `O=C(O)CCn1cccn1`, the melting point was 76 to 78 °C.

The molecule `CCNC(=O)C1CCCNC1` (configuration not stated) returned a melting point of 60 to 62 °C.

`CCOC(=O)/C(C#N)=C\Nc1cc(F)cc(F)c1` displayed a melting point of 174 to 176 °C. Next, `CCOC(O)=C1Nc2ccccc2C1=O`: 92 to 94 °C. With `O=S(=O)(Cl)c1ncn[nH]1` the figure was 58 to 60 °C; with `O=CNc1ccc(C(=O)O)cc1`, 264 to 266 °C. Next, `Cc1c([N+](=O)[O-])cccc1S(=O)(=O)Cl`: 47 to 49 °C.

For `CNCCNS(=O)(=O)c1ccc(C)cc1`, the melting point was 84 to 86 °C. With `Cc1cc(-n2c(C)cc(C(=O)CCl)c2C)no1` the figure was 110 to 112 °C. Consider `O=C(CCl)Nc1ccc2c(c1)C(=O)c1ccccc1C2=O`, for which the melting point lay in the range of 298 to 300 °C.

In the case of `Cc1cc(C(=O)CCl)c(C)n1Cc1ccc(F)cc1`, the melting point is 94 to 96 °C. Next, `Cc1ccc(-c2csc(=O)n2CC(=O)O)cc1`: 128 to 130 °C; `CNc1nc(-c2ccccc2[N+](=O)[O-])cs1`: 139 to 141 °C. With `Cc1cc(N)n(-c2cc(Cl)ncn2)n1` the figure was 171 to 173 °C; with `CC(=O)c1ccc(F)cc1OC(F)F`, 55 to 57 °C. Next, `Cc1cc(C(=O)CCl)c(C)n1-c1ccc(C(C)(C)C)cc1`: 102 to 104 °C; `CCN1N=C(c2ccccc2)CC1=O`: 140 to 142 °C; `Cn1cnnc1CN`: 32 to 34 °C. `Nc1ccccc1-n1ccc(C(=O)O)n1` gave a melting point of 136 to 138 °C.

Molecule `CCCc1nc2c(c(=O)[nH]1)CCN(Cc1ccccc1)C2` registered a melting point of 171 to 173 °C.

The molecule `Oc1ccc(-c2ccc(F)cc2)nn1` registered a melting point of 269 to 271 °C. For `CC(=O)c1cc2ccccc2[nH]1`, the melting point was in the range of 149 to 151 °C. With `CCOC(=O)Nc1ccc(C(=O)O)cc1` the figure was 170 to 172 °C; with `O=C(NCCO)c1cccnc1`, 74 to 76 °C; with `O=C(c1c[nH]c2ccccc12)C(Cl)c1ccccc1` (configuration not stated), 124 to 126 °C. Next, `CC(C)Cc1cc(N)n(C)n1`: 90 to 92 °C; `COC(=O)c1cn(C)c(-c2ccc(N)cc2)c1C(=O)OC`: 181 to 183 °C; `CNC(=O)CC1CCNCC1`: 105 to 107 °C. Next, `O=C(CCl)NC(c1ccccc1)c1ccc2[nH]c(C(F)(F)F)nc2c1` (configuration not stated): 193 to 195 °C; `CN1C(=O)C(C(N)=NO)=C(N)C12CCCC2`: 210 to 212 °C. The molecule `O=S(=O)(Nc1ccc(F)c(F)c1)c1ccc(Cl)nc1` had a melting point of 159 to 161 °C. Next, `O=c1[nH]nnn1-c1ccccc1`: 188 to 189 °C.

In the case of `N#Cc1c[nH]c(C(=O)O)c1`, the melting point lay in the range of 256 to 258 °C. For `CCOCCCNC(=S)NCc1ccc(OC)cc1`, the melting point was in the range of 39 to 41 °C. With `O=C(O)CC(O)(c1ccccc1)C1CC1` (configuration not stated) the figure was 105 to 107 °C.

For the origin of these results see a melting point compilation (Tetko et al.).
